Among the data in a melting point compilation (Tetko et al.) are melting point values, retold here.

As for `Clc1ccc2cccnc2c1CBr`, the melting point (in general, the temperature of the solid-liquid transition) fell in the range of 119 to 121 °C.

On to `CN1CC(=O)Nc2ccc(Cl)nc21`, for which the melting point lay in the range of 233 to 235 °C.

The compound `Cc1ccc2c(CC(=O)O)coc2c1C` yielded a melting point of 148 to 152 °C.

As to `CNC(=O)C1(C(=O)O)CCC1`, the melting point lay within 144 to 146 °C.

Regarding `Cc1cnn(CCC(=O)O)c1`, the melting point fell in the range of 94 to 96 °C.

In turn, `O=C(c1ccccc1)C1CCOCC1` registered a melting point of 57 to 59 °C.

`Cc1nn(C)c2ncc(C=O)cc12` had a melting point of 107 to 109 °C.

`CN1CCC(C)(O)CC1` came in with a melting point of 62 to 64 °C.

For `CCN(CC)S(=O)(=O)c1ccc(C(C)=O)cc1`, the melting point is 81 to 83 °C.

Compound `NCC(=O)Nc1ccccc1-n1cncn1` yielded a melting point of 118 to 120 °C.

For `O=c1[nH]nnc2sc3c(c12)CCCC3`, the melting point fell in the range of 185 to 187 °C.

Regarding `CCCOc1ccc(C(=O)O)cc1N`, the melting point lay in the range of 122 to 124 °C.

For the compound `O=C(CCl)Cc1c(F)cccc1Cl`, the melting point fell in the range of 37 to 39 °C.

Regarding `Nc1ccc2c(c1)C(=O)N(CC1CC1)C2=O`, the melting point lay in the range of 163 to 165 °C.

In the case of `CCOC(=O)c1ccc(S(=O)(=O)N2CCCC2C(=O)O)o1` (stereo unspecified), the melting point was in the range of 124 to 126 °C.

`O=C(O)c1cc(F)cc(S(=O)(=O)Cl)c1Br` yielded a melting point of 186 to 188 °C.

`Oc1ccc2c(c1)OCCCO2` displayed a melting point of 97 to 99 °C.

Take `CC(=O)N(c1nc(CCl)cs1)C1CC1`: the melting point was in the range of 56 to 58 °C.

`Cc1cccc2c(Cl)ncnc12` showed a melting point of 131 to 133 °C.

For `COC(=O)Cn1ccc(N)n1`, the melting point fell in the range of 74 to 76 °C.

Regarding `COc1ccccc1C(=O)CC#N`, the melting point was 71 to 75 °C.

`Cc1ccc(S(N)(=O)=O)cc1C` yielded a melting point of 117 to 119 °C.

`Cc1nn(-c2ccc(Cl)cc2)c(C)c1C=O` returned a melting point of 131 to 133 °C.

The compound `O=C(O)c1ccc(OC2CCCCC2)cc1` displayed a melting point of 184 to 186 °C.

`O=Cc1ccccc1OCc1cn2ccccc2n1` had a melting point of 123 to 125 °C.

`Cc1nn(Cc2ccccc2)c(C)c1C=NO` gave a melting point of 135 to 137 °C.

The compound `Nn1c(S)nnc1C1CCOC1` (stereo unspecified) returned a melting point of 116 to 118 °C.

In turn, `CC(C)(C)c1ccc(-c2nnc(N)[nH]2)cc1` yielded a melting point of 213 to 215 °C.

`Cc1nc(-c2ccccc2)oc1C(=O)O`: the melting point lay within 244 to 246 °C.

`N#Cc1ccc(OCCBr)cc1` returned a melting point of 55 to 59 °C.

For the compound `NC(=S)Nc1cccc2c1CCCC2`, the melting point is 165 to 167 °C.

`CCCOc1ccc(OCCBr)cc1` had a melting point of 45 to 47 °C.

For the compound `NCCNC(CC(=O)O)C(N)=O` (stereo unspecified), the melting point is 161 to 163 °C.

Compound `COc1ccc(NC(=O)Cn2cc(N)cn2)cc1` returned a melting point of 151 to 153 °C.

With `O=C(NCCc1ccc(O)cc1)c1ccc(Cl)cc1`, the melting point was 168 to 170 °C.

Turning to `CCOc1ccc(C(=O)NN)cc1OC`, the melting point fell in the range of 161 to 163 °C.

Turning to `CC(C)C(NC(=O)c1ccccc1F)C(=O)O` (stereo unspecified), the melting point is 116 to 118 °C.

In turn, `CCOC(=O)c1cccnc1NC` returned a melting point of 46 to 48 °C.

On to `c1ccc(Cc2nnc3n2CCNC3)cc1`, for which the melting point lay in the range of 111 to 113 °C.

In turn, `CCc1ccccc1NC(=O)CC(C)=O` came in with a melting point of 89 to 91 °C.

Turning to `CCOC(=O)c1oc(N)nc1C`, the melting point lay within 219 to 221 °C.

`O=C(O)c1cc2ccc(C(F)(F)F)cc2[nH]1` returned a melting point of 143 to 145 °C.

For `Brc1ccc(OCCc2ccccc2)cc1`, the melting point lay in the range of 49 to 51 °C.

Consider `O=C(O)CCc1nc(-c2ccccn2)no1`, for which the melting point fell in the range of 206 to 208 °C.

In turn, `CC(C)CNC(=O)c1ccccc1N` returned a melting point of 109 to 111 °C.

`O=C(O)CCn1cnc2ccccc21` displayed a melting point of 106 to 108 °C.

`CCc1ccc(/C=C/c2cc(C(=O)O)c3cc(Br)ccc3n2)cc1` displayed a melting point of 286 to 288 °C.

In the case of `Nc1ccc(Oc2cccc(F)c2)c2ccncc12`, the melting point was in the range of 137 to 139 °C.

For `NC(=S)c1cccc(S(N)(=O)=O)c1`, the melting point was 152 to 154 °C.

Take `Nc1cc(-c2ccc(F)cc2)no1`: the melting point lay in the range of 100 to 102 °C.

As to `O=C(O)CSCc1cccc(Br)c1`, the melting point lay in the range of 70 to 80 °C.

Regarding `O=S(=O)(Cl)c1ccc(Cl)c2ncccc12`, the melting point was 111 to 113 °C.

Take `Cc1csc(-c2ccc(N)cc2)n1`: the melting point lay within 111 to 113 °C.

Regarding `O=C(O)c1nn(-c2cc(C(F)(F)F)ccc2Cl)c2c1CCC2`, the melting point was in the range of 229 to 231 °C.

`Cc1cc(Sc2ncccn2)ccc1N`: the melting point was in the range of 126 to 128 °C.

`CC(C)(C)OC(=O)NCc1ccc2c(c1)CCCN2` gave a melting point of 63 to 65 °C.

Consider `CCN(c1ccccc1)S(=O)(=O)c1ccc(NN)nc1`, for which the melting point fell in the range of 175 to 177 °C.

`COC(=O)c1cc2c(OC)c(OC)c(OC)cc2[nH]1` returned a melting point of 136 to 138 °C.

Turning to `COCCOc1ccc(C(C)=O)cc1`, the melting point lay in the range of 38 to 40 °C.

As to `Cc1cccc(F)c1C#N`, the melting point was 45 to 47 °C.

The compound `O=Cc1ccc(-c2ccc(Cl)cc2)s1` came in with a melting point of 83 to 87 °C.

The compound `CC(O)c1cccc(O)c1` (stereo unspecified) yielded a melting point of 112 to 114 °C.

With `Cc1ccc(S(=O)(=O)NC(C)(C)C)cc1C(=O)O`, the melting point lay within 180 to 182 °C.

Take `CNC(=O)c1cc(Cl)ccc1[N+](=O)[O-]`: the melting point is 137 to 139 °C.

Consider `CC1(C)SC[C@H](C(=O)O)NC1=O`, for which the melting point lay in the range of 205 to 207 °C.

Compound `Clc1nc(-c2cccnc2)nc2sc3c(c12)CCCC3` displayed a melting point of 137 to 139 °C.

Compound `Cc1ccc(S(=O)(=O)N2CCC(C(=O)O)CC2)cc1C` gave a melting point of 190 to 192 °C.

`O=C(O)c1ccc2c(c1)C(=O)N(C1CCS(=O)(=O)C1)C2=O` (stereo unspecified) displayed a melting point of 239 to 241 °C.

On to `Cc1nn(Cc2ccc(Cl)cc2)c(O)c1C=O`, for which the melting point is 179 to 181 °C.

On to `O=C(O)C(c1ccccc1)n1cccn1` (stereo unspecified), for which the melting point lay within 141 to 143 °C.

Turning to `CC(C)Cn1[nH]c(-c2ccccc2)cc1=N`, the melting point is 99 to 101 °C.

As for `O=[N+]([O-])c1cc(F)cc(S(=O)(=O)Cl)c1`, the melting point was 40 to 42 °C.

On to `NC(=O)NCCCCCC(=O)O`, for which the melting point was 175 to 177 °C.

`O=C(O)c1ccc(F)c(S(=O)(=O)Cl)c1` showed a melting point of 138 to 140 °C.

In turn, `Oc1nnc(-c2ccccc2)c(-c2ccccc2)n1` came in with a melting point of 222 to 224 °C.

For `CCN(CC)Cc1ccc(C(=O)O)cc1`, the melting point was in the range of 154 to 156 °C.

In turn, `Cc1ccc(-c2csc3ncnc(Cl)c23)cc1C` registered a melting point of 179 to 181 °C.

`O=C(O)c1cc(N/N=C/c2ccccc2Br)ccc1Cl`: the melting point fell in the range of 180 to 182 °C.

On to `Nc1ccc(Oc2cccc3cccnc23)cc1`, for which the melting point was 203 to 205 °C.

In turn, `Nc1c(Cl)nc2ccccc2c1N` returned a melting point of 178 to 180 °C.

`ClCc1cnc(-c2ccccc2)s1` returned a melting point of 57 to 59 °C.

`O=C(O)C1(S(=O)(=O)c2ccc(Cl)cc2)CC1` returned a melting point of 185 to 187 °C.

`Clc1ccc2nccnc2n1` returned a melting point of 148 to 150 °C.

As for `NS(=O)(=O)c1c(F)cccc1[N+](=O)[O-]`, the melting point is 163 to 165 °C.

In the case of `ON=C1CCC1`, the melting point was in the range of 82 to 84 °C.

`N#CCCc1c(Cl)cccc1Cl` came in with a melting point of 40 to 42 °C.

`Sc1nnc(-c2ccc3c(c2)OCO3)o1` displayed a melting point of 179 to 181 °C.

Regarding `CC(C)(C)NC(=O)c1ccccc1N`, the melting point was 124 to 125 °C.

On to `CC(=O)Nc1ccc(N=C=S)cc1`, for which the melting point fell in the range of 199 to 201 °C.

As to `CC(C)CNCC(O)c1ccc(F)cc1` (stereo unspecified), the melting point lay within 56 to 58 °C.

In turn, `CC(=O)c1cc(C)cc(C(C)=O)c1O` gave a melting point of 50 to 52 °C.

With `CC1CCCC(C)N1C(=O)COc1ccc(C(=O)O)cc1` (stereo unspecified), the melting point lay in the range of 205 to 215 °C.

In turn, `NC(=O)c1c(F)cc(Br)cc1F` registered a melting point of 172 to 174 °C.

In turn, `NS(=O)(=O)Cc1ccc(F)cc1` showed a melting point of 122 to 124 °C.

Compound `CCCc1ccc2c(c1)C(=O)C(=O)N2` showed a melting point of 104 to 106 °C.

`Nc1ccc(-c2cn3ccccc3n2)cc1` came in with a melting point of 118 to 120 °C.

The compound `Cc1ccc(-n2nc(C(=O)O)cc2-c2ccc(-c3ccccc3)cc2)cc1` yielded a melting point of 205 to 207 °C.

As for `COC(=O)c1cc2c(F)cc(Br)cc2[nH]1`, the melting point was in the range of 190 to 192 °C.

`c1ccc2[nH]c(C3CCCNC3)nc2c1` (stereo unspecified) came in with a melting point of 189 to 191 °C.

`O=C(O)c1nn(-c2ccccc2C(F)(F)F)cc1O`: the melting point lay within 141 to 145 °C.

In turn, `CCOC(=O)c1cnc2ccccc2c1-n1cncn1` came in with a melting point of 84 to 86 °C.

On to `O=C(O)c1ncoc1C(F)(F)F`, for which the melting point was in the range of 94 to 96 °C.

Regarding `O=C(O)c1ccnc(OC2CCC2)c1`, the melting point fell in the range of 153 to 155 °C.

Compound `COc1ccc(C=O)c2cc(C(=O)O)oc12` displayed a melting point of 264 to 266 °C.

In the case of `N#Cc1c(N)nc2sc(C(=O)Nc3ccc(Br)cc3)c(N)c2c1-c1ccco1`, the melting point was in the range of 257 to 259 °C.

Regarding `O=S(=O)(Nc1cn[nH]c1)c1ccccc1F`, the melting point lay in the range of 186 to 188 °C.

`Cc1cc(Oc2cnccn2)ccc1N` displayed a melting point of 125 to 127 °C.

In turn, `COCCn1c(C(=O)O)cc2ccccc21` displayed a melting point of 139 to 141 °C.

Consider `[N-]=[N+]=NCCN1C(=O)C(=O)c2ccccc21`, for which the melting point lay within 71 to 73 °C.

For `CC(C)C(=O)NC1(C#N)CCCC1`, the melting point was in the range of 56 to 58 °C.

`Clc1nc(-c2ccsc2)nc2sc3c(c12)CCCC3` displayed a melting point of 148 to 150 °C.

`Nc1ccc(N2CCOCC2)cc1C(=O)O` displayed a melting point of 235 to 237 °C.

For `Nn1c(S)nnc1C1CCCO1` (stereo unspecified), the melting point lay within 143 to 147 °C.

Compound `O=C(C=NO)Nc1ccc2c(c1)OCCO2` showed a melting point of 130 to 132 °C.

`N#CCc1nc2cc(Cl)ccc2c(=O)[nH]1` had a melting point of 282 to 284 °C.

For the compound `Cc1ccc(N2CCC(N)C2=O)cc1` (stereo unspecified), the melting point was 97 to 99 °C.

`Oc1ccc(-c2nc(-c3ccccc3)cs2)cc1` showed a melting point of 148 to 150 °C.

`NC1CCN(c2ccccc2)C1=O` (stereo unspecified) showed a melting point of 66 to 68 °C.

`O=C(O)CNS(=O)(=O)Cc1ccccc1` displayed a melting point of 153 to 155 °C.

With `CC(=O)c1ccc(Cl)c(S(=O)(=O)Cl)c1`, the melting point is 111 to 113 °C.

`COC(=O)c1oc2ccccc2c1CBr` gave a melting point of 104 to 106 °C.
